Data published in US8071556B2, “Peptide substance revealing a stress protective effect, pharmaceutical composition on its base, and the method of its application” (Obschestvo S Ogranichennoi Otvetstevennostyu “Sia Peptides”, priority 2006, dated 2011).
Positions of bridges follow the written chain, without caps; N, C: chain ends. Non-standard residues stand in square brackets, D forms with d. Residues, ends and D or L forms follow the SMILES beside them. *: point of attachment. Ileψ(thiazoline)Cys = CC[C@H](C)[C@H](N)C1=N[C@H](C(=O)*)CS1; dOrn = NCCC[C@@H](N)C(=O)O

Columns and labels:
[1] = test system: enkephalinases in human blood serum; experiment: Activity of enkephalinases in human blood serum ([3H]Leu-enkephalin disintegration); assay type: biochemical; conditions: 0.15 μM [3H]Leu-enkephalin
Description: The ability of peptide H-Glu-Asp-Gly-OH to influence the activity of endogen opioid peptide degradation enzymes, i.e. […], was estimated in kinetic studies judging by disintegration of low concentrations (0.15 μM) of [^3H]Leu-enkephalin by human blood serum enzymes. Commonly used enkephalinase inhibitors N-carboxymethyl-Phe-Leu (N-CMPL) and bacitracin were used as comparison substances. Summary enkephalinase activity of the blood serum taken from 5 healthy donors, was estimated in vitro. Results were evaluated after 4 studies.

[2] = set-up: species or system male guinea pigs; conditions: guinea pig, in vivo
Description: (§1) Common toxicity of peptide H-Glu-Asp-Gly-OH was studied according to the requirements stated in the “Manual for experimental (pre-clinical) study of new pharmacological substances” (2000): acute toxicity in case of single administration of the substance, as well as sub-acute and chronic toxicity in case of long-term administration of the peptide.
The studies of chronic toxicity were conducted for 6 months, basing on the term of recommended clinical administration of the substance, on 92 male guinea pigs with body weight of 310-350 g. Experimental animals received the peptide daily, once a day, intramuscularly, for 6 months in the doses of 1 μg/kg, 0.1 mg/kg, 1 mg/kg in 0.5 ml of sterile 0.9% NaCl solution. Control animals received sterile 0.9% NaCl solution in the same volume and by the same schedule. Traditional methods were used for the evaluation of the following indices of the animals' peripheral blood: the quantity of erythrocytes, hemoglobin, reticulocytes, thrombocytes, leukocytes, leukocyte formula, erythrocyte sedimentation rate (ESR), erythrocyte resistance. Alongside with that, the content of total protein in the serum was identified using Lowry's method, as well as potassium and sodium content using the method of plasma spectrophotometry. After the completion of the experiment pathomorphologic studies of animal brain and spinal cord, spinal cord ganglia, thyroid gland, parathyroid glands, adrenal glands, testis, pituitary gland, heart, lungs, aorta, liver, kidneys, urinary bladder, pancreas, stomach, small intestine, large intestine, thymus, spleen, lymph nodes and bone marrow were performed.

[3] = test system: biogen amines in rat blood serum; experiment: Level of biogen amines in rat blood serum after peptide administration; assay type: in vivo; conditions: 2.5 μg/kg intraperitoneal daily for 5 days, vs control (FIG. 2)
Description: (§2) The study was performed on 27 white mongrel rats of both sexes with body weight of 300-320 g.
(§3) The animals were subjected to intraperitoneal injection of peptide H-Glu-Asp-Gly-OH in the dose of 2.5 μg/kg in 0.5 ml of sterile 0.9% NaCl solution daily for 5 days.
(§4) Control rats received sterile 0.9% NaCl solution in the same volume and by the same schedule.
(§5) Upon completion of peptide administration the animals were decapitated, and the content of noradrenaline, dopamine, 5-oxyindolacetic acid, serotonin and histamine was evaluated in the brain cortex and blood serum.

[4] = test system: biogen amines in rat brain cortex; experiment: Level of biogen amines in rat brain cortex after peptide administration; assay type: in vivo; conditions: 2.5 μg/kg intraperitoneal daily for 5 days, vs control (FIG. 1)
Description: as §2, §3, §4, §5

[5] = Acute toxicity, single intramuscular administration; assay type: in vivo, white mongrel male mice; conditions: mice, 1-5 mg/kg, dose exceeding the therapeutic one by more than 5000 times
Text: as §1
Acute toxicity was studied on 66 white mongrel male mice with body weight of 20-22 g. The animals were randomly subdivided into 6 equal groups. The substance was administered to the animals once, intramuscularly, in the doses of 1 mg/kg, 2 mg/kg, 3 mg/kg, 4 mg/kg, 5 mg/kg in 0.25 ml of sterile 0.9% NaCl solution. Control animals received 0.9% NaCl solution in the same volume.

[6] = Human functional status under low oxygen partial pressure (pressure chamber rise to 5000 meters); assay type: in vivo; conditions: healthy men
Description: Effect of peptide H-Glu-Asp-Gly-OH on human functional status and working ability in extreme conditions under the effect of low oxygen partial pressure was studied by examining 80 healthy men aged 20-22 years. The participants of the study were subdivided into 3 groups: 20 men formed the control group, while main groups I and II consisted of 30 persons each. Background study, including the examination of respiratory, cardiovascular and central nervous systems was performed on the first day of the experiment.
After the completion of background study the members of main group I began receiving the pharmaceutical composition, containing peptide H-Glu-Asp-Gly-OH as its active base, by intranasal infusions, in the dose of 5.0 mg in 1 ml of physiological solution (subgroup I), in the dose of 100.0 μg (subgroup II) and in the dose of 1.0 μg in 1.0 ml of physiological solution (subgroup III) […], for 2 days. Thus, the members of main group I received the peptide H-Glu-Asp-Gly-OH intranasally in the dose of 10 mg (subgroup I), 200 μg (subgroup II) and 2 μg (subgroup III) per course.
Members of main group II began receiving the pharmaceutical composition, containing the peptide H-Glu-Asp-Gly-OH as its active base, after the completion of background study, intramuscularly, in the dose of 5.0 mg in 1 ml of physiological solution (subgroup I), in the dose of 100.0 μg (subgroup II) and in the dose of 1.0 μg in 1.0 ml of physiological solution (subgroup III) daily, once a day, for 2 days.
Members of the control group received placebo in the form water for injections.
On the 4th day of the experiment the members of all 3 groups were subjected to the effect of hypoxic hypoxia by “rising” them to the altitude of 5000 meters for 60 minutes of exposition without auxiliary oxygen supply, which was imitated using the pressure chamber SBK-80. Participants of the experiment were shortly examined before the beginning of the “rise”, during the experiment and after its completion. On the 5th day of the experiment all participants were subjected to a full scale final examination. During the study reactive anxiety in all participants was on the moderate level (31-45 points). […] After 2 days of administration of the pharmaceutical composition containing peptide H-Glu-Asp-Gly-OH in different doses as its active base reactive anxiety in participants of the experiment was reduced by 10-13% depending on the dosage and method of administration of the pharmaceutical composition as compared to the members of the control group.

[7] = Sub-acute toxicity, 90 days intramuscular administration; assay type: in vivo, white mongrel male rats; conditions: rats; intramuscular daily for 90 days; doses exceeding the therapeutic one by 100-1000 times
Text: as §1
Sub-acute toxicity was studied on 64 white mongrel male rats with body weight of 180-220 g. Experimental animals daily, once a day, for 90 days received the substance intramuscularly in the doses of 1 μg/kg, 0.1 mg/kg, 1 mg/kg in 0.5 ml of sterile 0.9% NaCl solution. Control animals received sterile 0.9% NaCl solution in the same volume. Morphological composition and properties of the animals' peripheral blood was studied before the administration of the substance, as well as on the 30th, 60th and 90th day after the beginning of the administration of the substance. Biochemical and coagulologic indices of the blood were studied upon completion of the experiment.

[8] = test system: c-Fos protein in rat pineal gland; experiment: c-Fos protein level and parenchyma status in rat pineal gland in osmotic stress; assay type: in vivo; conditions: rats, 48-hour osmotic stress
Description: Effect of intranasally administered H-Glu-Asp-Gly-OH peptide on c-Fos protein content in stress-affected rat pineal gland was studied. Immunohistochemical study of c-Fos protein content was performed in two groups of rats—intact and subjected to 48-hour osmotic stress. The latter were intranasally administered with peptide H-Glu-Asp-Gly-OH in the dose of 0.5 μg per animal in 0.1 ml of sterile physiological 0.9% NaCl solution (last infusion was performed 2 hours before taking the material). Pineal gland parenchyma in all groups of animals was studied using light optical appliances.

[9] = test system: c-fos gene expression in the neurons of rat hypothalamic paraventricular nucleus; experiment: c-fos gene expression in neurons of rat hypothalamic paraventricular nucleus under emotional stress; assay type: in vivo, Wistar rats
Description: The effect of peptide H-Glu-Asp-Gly-OH was studied in the paraventicular nucleus of hypothalamus (PVH) in stress-resistant and stress-prone animals, as well as in rats exposed to emotional stress.
The experiments were conducted on 28 Wistar rats.
Behavior of the animals was preliminarily (for the purpose of identifying the extent of their resistance to emotional stress) estimated in the “open field” test. The effectiveness of peptide H-Glu-Asp-Gly-OH was studied on stress-resistant and stress-prone rats. Peptide H-Glu-Asp-Gly-OH was administered intraperitoneally in the doses of 0.1 and 0.01 μg per rat 7-10 days after the first “open field” test. One hour after the injection the rats were exposed to the 60 minutes emotional stress, which was modulated by motional restriction.
To identify the cells, containing Fos protein, which is a product of the early c-fos gene expression, an immunohystochemical investigation of brain section with automated counting of Fos-positive cells was performed. The peculiarities of c-fos gene induction were studied in the PVH.

[10] = 10 μg/ml, human blood serum of 5 healthy donors (FIG. 5)
[11] = end of the test, depending on the dosage and method of administration, placebo 10-11%

CC(C)C[C@H](NC(=O)[C@H](Cc1ccccc1)NCC(=O)O)C(=O)O [N-CMPL, N-carboxymethyl-Phe-Leu]
activity of blood serum enkephalinases [1, 10]: comparable

CC[C@H](C)[C@H](N)C1=N[C@H](C(=O)N[C@@H](CC(C)C)C(=O)N[C@H](CCC(=O)O)C(=O)N[C@H](C(=O)N[C@H]2CCCCNC(=O)[C@H](CC(N)=O)NC(=O)[C@@H](CC(=O)O)NC(=O)[C@H](Cc3cnc[nH]3)NC(=O)[C@@H](Cc3ccccc3)NC(=O)[C@H]([C@@H](C)CC)NC(=O)[C@@H](CCCN)NC2=O)[C@@H](C)CC)CS1 [bacitracin] ({Ileψ(thiazoline)Cys}-L[dE]IK[dOrn]I[dF]H[dD]N; lactam 4-C)
activity of blood serum enkephalinases ([1]; 50 μg/ml, human blood serum of 5 healthy donors): comparable

N[C@@H](CCC(=O)O)C(=O)N[C@@H](CC(=O)O)C(=O)NCC(=O)O [peptide H-Glu-Asp-Gly-OH, glutamyl-aspartyl-glycine] (H-Glu-Asp-Gly-OH)
chronic toxicity: side effects [2]: absence of side effects | effect on ESR, erythrocyte resistance and biochemical indices of the blood serum [2]: No reliable effect | pathologic changes (general status, blood indices, internal organs, cardiovascular and respiratory systems, liver and kidney functions) [2]: did not reveal any pathologic changes | dopamine content in blood serum [3]: decrease | histamine content in blood serum [3]: decrease | serotonin content in blood serum [3]: decrease | activity of blood serum enkephalinases [1, 10]: inhibited | dopamine content in brain cortex [4]: reliable increase | noradrenaline content in brain cortex [4]: reliable increase | serotonin content in brain cortex [4]: reliable increase | acute toxicity: toxic reactions [5]: does not cause toxic reactions | study participants showing good tolerability to hypoxia ([6]; 5000 meters, 60 minutes, placebo 60%): 80-90% | reduction of reactive anxiety as compared to the control group ([6]; after 2 days of administration, different doses, intranasal or intramuscular): 10-13% | lung ventilation in case of dosed physical load ([6]; after hypoxia impact): reduced lung ventilation | increase in heart rate (HR) caused by hypoxia ([6]; depending on the dose and method of administration, placebo 30-40%): 10-20% | increase in maximum oxygen consumption [6, 11]: 15-20% | increase in physical working capacity index (PWC 170) [6, 11]: 15-20% | subjective status under hypoxic hypoxia versus initial level ([6]; intramuscular administration, different doses): equal to the initial level | decrease in the subjective status under hypoxic hypoxia ([6]; intranasal infusion): 4-5% | reactive anxiety level versus initial level ([6]; next day after the impact of hypoxia, independently of the method of administration): equal to the initial one | subjective status better than the initial level ([6]; next day after the impact of hypoxia, intramuscular administration): 15% | subjective status better than the initial level ([6]; next day after the impact of hypoxia, intranasal infusion): 10% | sub-acute toxicity: side effects [7]: absence of side effects | content of c-Fos protein in pinealocytes ([8]; 0.5 μg per animal intranasal (FIG. 3)): Mild but reliable increase | osmotic stress induced dilation of capillaries and pericapillary space in pineal gland parenchyma ([8]; 0.5 μg per animal intranasal (FIG. 4)): partial reduction | number of Fos-positive neural cells in PVH ([9]; 0.01 μg per rat intraperitoneal, stress-resistant rats, both not exposed and exposed to stress): increase | number of Fos-positive neurons in PVH ([9]; 0.1 μg per rat intraperitoneal, against the background of stress, stress-resistant animals): increased | number of Fos-positive neural cells in PVH ([9]; 0.1 μg per rat intraperitoneal, both stress-resistant and stress-prone rats): reduced
